Assay results as given in patent US11020398B2, “Amino-pyrrolopyrimidinone compounds and methods of use thereof” (ArQule, Inc., priority 2016, dated 2021).
pIC50: −log10 of the molar value.

Tests used:
[1] = biological target: full-length activated BTK mutant C481S (Homo sapiens (Human), UniProt Q06187, C481S); assay: AlphaScreen assay, BTK mutant C481S; assay type: biochemical
Protocol: (§1) The activated BTK was frozen in 50 μl aliquots (125-150 μg/ml).
(§2) BTK activity was assayed using a PLCγ2-derived biotinylated peptide substrate (biotin-[…]-OH) and AlphaScreen™ (Amplified Luminescent Proximity Homogeneous Assay) technology. The extent of peptide phosphorylation was determined by using acceptor beads conjugated to phosphotyrosine antibody that recognized the phosphorylated peptide and donor beads conjugated to streptavidin that binds to the biotin on the peptide. Excitation of the donor beads converted ambient oxygen to excited singlet oxygen which when in close proximity to acceptor beads, reacted with acceptor beads resulting in signal amplification.
(§3) Test inhibitors and controls were prepared in 10% DMSO at 10-fold the desired final concentration and added to each well of a reaction plate (Corning 96-well half-area solid white nonbinding surface plate) in a volume of 2.5 μl. […] The plate was incubated for 120 min at room temperature and the reaction stopped by the addition of 10 μl stop/detection mixture containing 35 mM EDTA, 50 ug/ml AlphaScreen™ Streptavidin Donor beads (final concentration is 500 ng/well) and AlphaScreen™ Phospho-tyrosine (P-Tyr-100) Acceptor beads (final concentration is 500 ng/well) under green light conditions. The plate was incubated overnight at room temperature in the dark and the plates read on the BMG PolarStar Omega ([…], Gain=4000). Data were archived and analyzed with a 4-parameter fit to generate IC50 values using the CDD Vault from Collaborative Drug Discovery.

[2] = biological target: full-length activated BTK (wildtype) (Homo sapiens (Human), UniProt Q06187); assay: AlphaScreen assay, wild-type BTK; assay type: biochemical
Chain of full-length activated BTK (wildtype) (Q06187 whole entry): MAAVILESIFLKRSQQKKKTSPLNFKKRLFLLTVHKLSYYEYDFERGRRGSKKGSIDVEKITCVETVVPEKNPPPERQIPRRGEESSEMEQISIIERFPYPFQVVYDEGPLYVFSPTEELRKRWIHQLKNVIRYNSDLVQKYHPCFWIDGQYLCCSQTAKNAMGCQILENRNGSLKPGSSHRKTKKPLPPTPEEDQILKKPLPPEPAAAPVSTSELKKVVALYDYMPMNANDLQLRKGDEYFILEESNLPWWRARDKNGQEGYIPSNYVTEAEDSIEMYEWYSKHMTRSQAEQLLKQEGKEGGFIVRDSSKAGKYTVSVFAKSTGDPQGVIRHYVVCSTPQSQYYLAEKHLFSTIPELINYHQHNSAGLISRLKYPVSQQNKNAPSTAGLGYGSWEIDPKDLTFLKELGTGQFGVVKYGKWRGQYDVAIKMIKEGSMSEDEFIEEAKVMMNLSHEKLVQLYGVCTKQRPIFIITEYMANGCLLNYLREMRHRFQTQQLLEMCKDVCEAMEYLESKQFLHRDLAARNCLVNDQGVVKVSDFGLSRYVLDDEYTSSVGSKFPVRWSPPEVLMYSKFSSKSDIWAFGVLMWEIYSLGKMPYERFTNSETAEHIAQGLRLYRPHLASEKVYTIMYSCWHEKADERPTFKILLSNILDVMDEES
Protocol: as §1, §2, §3

Chain of full-length activated BTK mutant C481S (Q06187 whole entry C481S): as the sequence (Q06187 whole entry) above, with C481S counted along it

SMILES	pIC50 [1]	pIC50 [2]	inhibition at 10 µM ([1]; read-out: BTK-C481S % @ 10 uM, @ 10 uM)
CNC(=O)c1cccc(Oc2ccc(C(=O)c3c[nH]c4ncnc(N[C@@H]5CC[C@@H](CO)OC5)c34)cc2)n1 [Compound I-320, 6-(4-(4-(((3R,6S)-6-(hydroxymethyl)tetrahydro-2H-pyran-3-yl)amino)-7H-pyrrolo[2,3-d]pyrimidine-5-carbonyl)phenoxy)-N-methylpicolinamide]	7.20	6.47	
O=C(c1cc(NC(=O)C2CCOCC2)ccc1Cl)c1c[nH]c2ncnc(N[C@@H]3CC[C@@H](CO)OC3)c12 [Compound I-603, N-(4-chloro-3-(4-(((3R,6S)-6-(hydroxymethyl)tetrahydro-2H-pyran-3-yl)amino)-7H-pyrrolo[2,3-d]pyrimidine-5-carbonyl)phenyl)tetrahydro-2H-pyran-4-carboxamide]	5.75	6.33	
O=C(Nc1ccc(Cl)c(C(=O)c2c[nH]c3ncnc(N[C@@H]4CC[C@@H](CO)OC4)c23)c1)c1cncs1 [Compound I-604, N-(4-chloro-3-(4-(((3R,6S)-6-(hydroxymethyl)tetrahydro-2H-pyran-3-yl)amino)-7H-pyrrolo[2,3-d]pyrimidine-5-carbonyl)phenyl)thiazole-5-carboxamide]	6.14	6.52	
O=C(c1cc(NC(=O)C2(c3ccccc3)CC2)ccc1Cl)c1c[nH]c2ncnc(N[C@@H]3CC[C@@H](CO)OC3)c12 [Compound I-605, N-(4-chloro-3-(4-(((3R,6S)-6-(hydroxymethyl)tetrahydro-2H-pyran-3-yl)amino)-7H-pyrrolo[2,3-d]pyrimidine-5-carbonyl)phenyl)-1-phenylcyclopropane-1-carboxamide]	5.73	6.33	
COCCNC(=O)c1ccc(C(=O)c2c[nH]c3ncnc(N[C@@H]4CC[C@@H](CO)OC4)c23)c(Cl)c1 [Compound I-610, 3-chloro-4-(4-(((3R,6S)-6-(hydroxymethyl)tetrahydro-2H-pyran-3-yl)amino)-7H-pyrrolo[2,3-d]pyrimidine-5-carbonyl)-N-(2-methoxyethyl) benzamide]	5.94	6.31	
O=C(c1ccc(C(=O)N2CCOCC2)cc1Cl)c1c[nH]c2ncnc(N[C@@H]3CC[C@@H](CO)OC3)c12 [Compound I-611, (3-chloro-4-(4-(((3R,6S)-6-(hydroxymethyl)tetrahydro-2H-pyran-3-yl)amino)-7H-pyrrolo[2,3-d]pyrimidine-5-carbonyl)phenyl)(morpholino) methanone]	5.82	5.94	
O=C(c1cc(C(=O)N2CCOCC2)ccc1Cl)c1c[nH]c2ncnc(N[C@@H]3CC[C@@H](CO)OC3)c12 [Compound I-612, (4-chloro-3-(4-(((3R,6S)-6-(hydroxymethyl)tetrahydro-2H-pyran-3-yl)amino)-7H-pyrrolo[2,3-d]pyrimidine-5-carbonyl)phenyl)(morpholino) methanone]		5.79	82%

Now those with a higher pIC50 [2], led by results:

pIC50 [1]	pIC50 [2]	inhibition at 10 µM ([1]; read-out: BTK-C481S % @ 10 uM, @ 10 uM)	SMILES
6.50	6.85		O=C(Cc1ccccc1)Nc1ccc(Cl)c(C(=O)c2c[nH]c3ncnc(N[C@@H]4CC[C@@H](CO)OC4)c23)c1 [Compound I-602, N-(4-chloro-3-(4-(((3R,6S)-6-(hydroxymethyl)tetrahydro-2H-pyran-3-yl)amino)-7H-pyrrolo[2,3-d]pyrimidine-5-carbonyl)phenyl)-2-phenylacetamide]
6.28	6.94		O=C(Nc1cccnc1)Nc1ccc(Cl)c(C(=O)c2c[nH]c3ncnc(N[C@@H]4CC[C@@H](CO)OC4)c23)c1 [Compound I-609, 1-(4-chloro-3-(4-(((3R,6S)-6-(hydroxymethyl)tetrahydro-2H-pyran-3-yl)amino)-7H-pyrrolo[2,3-d]pyrimidine-5-carbonyl)phenyl)-3-(pyridin-3-yl)urea]
7.30	7.23		CN1C[C@H](CNc2ncnc3[nH]cc(C(=O)c4ccc(Oc5ccccc5)cc4Cl)c23)C[C@H]1CO [Compound I-370e, (2-chloro-4-phenoxyphenyl)(4-((((3S,5S)-5-(hydroxymethyl)-1-methylpyrrolidin-3-yl)methyl)amino)-7H-pyrrolo[2,3-d]pyrimidin-5-yl)methanone]
7.35	7.45		O=C(c1ccc(Oc2ccccc2)cc1Cl)c1c[nH]c2ncnc(NC[C@H]3CC[C@@H](CO)O3)c12 [Compound I-362e, (2-chloro-4-phenoxyphenyl)(4-((((2R,5S)-5-(hydroxymethyl)tetrahydrofuran-2-yl)methyl)amino)-7H-pyrrolo[2,3-d]pyrimidin-5-yl)methanone]
6.94	7.68		O=C(Nc1ccc(Cl)c(C(=O)c2c[nH]c3ncnc(N[C@@H]4CC[C@@H](CO)OC4)c23)c1)c1ccccc1 [Compound I-601, N-(4-chloro-3-(4-(((3R,6S)-6-(hydroxymethyl)tetrahydro-2H-pyran-3-yl)amino)-7H-pyrrolo[2,3-d]pyrimidine-5-carbonyl)phenyl)benzamide]
6.86	7.70		O=C(c1ccc(Oc2ccccc2)cc1Cl)c1c[nH]c2ncnc(NC[C@H]3CN[C@H](CO)C3)c12 [Compound I-369e, (2-chloro-4-phenoxyphenyl)(4-((((3R,5S)-5-(hydroxymethyl)pyrrolidin-3-yl)methyl)amino)-7H-pyrrolo[2,3-d]pyrimidin-5-yl)methanone]
7.48	7.85		CN1C[C@H](Nc2ncnc3[nH]cc(C(=O)c4ccc(Oc5ccccc5)cc4Cl)c23)C[C@H]1CO [Compound I-342e, (2-chloro-4-phenoxyphenyl)(4-(((3R,5S)-5-(hydroxymethyl)-1-methylpyrrolidin-3-yl)amino)-7H-pyrrolo[2,3-d]pyrimidin-5-yl)methanone]
6.67	7.86		O=C(Nc1ccc(Cl)c(C(=O)c2c[nH]c3ncnc(N[C@@H]4CC[C@@H](CO)OC4)c23)c1)c1nccc2ccccc12 [Compound I-607, N-(4-chloro-3-(4-(((3R,6S)-6-(hydroxymethyl)tetrahydro-2H-pyran-3-yl)amino)-7H-pyrrolo[2,3-d]pyrimidine-5-carbonyl)phenyl)isoquinoline-1-carboxamide]
7.17	8.00		O=C(c1ccc(Oc2ccccc2)cc1Cl)c1c[nH]c2ncnc(N[C@H]3CN[C@H](CO)C3)c12 [Compound I-345e, (2-chloro-4-phenoxyphenyl)(4-(((3R,5S)-5-(hydroxymethyl)pyrrolidin-3-yl)amino)-7H-pyrrolo[2,3-d]pyrimidin-5-yl)methanone]
6.73	8.09		O=C(Nc1ccccc1)Nc1ccc(Cl)c(C(=O)c2c[nH]c3ncnc(N[C@@H]4CC[C@@H](CO)OC4)c23)c1 [Compound I-608, 1-(4-chloro-3-(4-(((3R,6S)-6-(hydroxymethyl)tetrahydro-2H-pyran-3-yl)amino)-7H-pyrrolo[2,3-d]pyrimidine-5-carbonyl)phenyl)-3-phenylurea]
7.25	9.01		O=C(Nc1ccc(Cl)c(C(=O)c2c[nH]c3ncnc(N[C@@H]4CC[C@@H](CO)OC4)c23)c1)c1cc2c(cn1)CCCC2 [Compound I-606, N-(4-chloro-3-(4-(((3R,6S)-6-(hydroxymethyl)tetrahydro-2H-pyran-3-yl)amino)-7H-pyrrolo[2,3-d]pyrimidine-5-carbonyl)phenyl)-5,6,7,8-tetrahydroisoquinoline-3-carboxamide]
